From patent US20080176952A1, “Management of Ophthalmologic Disorders, Including Macular Degeneration” (priority 2004, published 2008)
Where two headings read alike, the source gives them in different places. Values belong to the molecule of their own block, whether it stands above or below them.

Columns and labels:
[1] = tested on: 11-cis-retinol biosynthesis (IMH activity) in retinal pigment epithelial membrane system; assay: Effect on 11-cis-retinol biosynthesis (IMH activity) in RPE membranes; format: biochemical, bovine
Protocol: A control reaction mixture without any inhibitor was also incubated at room temperature for 15 min. At the end of the min incubation, all-trans-retinol [11-12-^3H2] (0.2 μM) was added to the reaction mixtures (100 mM Tris pH 8.0, […] of RPE protein, 0.2% BSA 100 μM of DPPC, 1 mM of DTT and 0.2 μM all-trans-retinol [11-12-^3H2]) and incubated at room temperature for 30 min. At the end of this 30 minutes of incubation, an aliquot of the reactions were quenched to verify the equal addition of all-trans-retinol [11,12-^3H2] and the effect of these inhibitors on LRAT. After this the control reaction mixture was incubated with atRA (60 & 6 μM), 13cRA (60 & 6 μM) or 4-HPR (60 & 6 μM) for 15 min. Now all the reaction mixtures were incubated with 30 μM of apo-rCRALBP (100 mM Tris pH 8.0, 7.7 μg of RPE protein, 0.2% BSA 100 μM of DPPC, 1 mM of DTT 30 μM apo-rCRALBP and 0.2 μM all-trans-retinol [11-12-^3H2]) at 37° C. for 30 minutes. At the end of this incubation period the 200 μL reaction mixture was quenched by the addition of 750 μL ice cold methanol after which 100 μL of 1M sodium chloride solution was added, and 500 μl hexane (containing butylated hydroxy toluene at 1 mg/mL) was added to effect extraction of the retinoids. The retinoids were analyzed as previously described (27). The amount of 11-cis-retinol formed was used as a measurement of IMH activity. All experiments were performed in triplicate and the average values of these measurements were used for analysis.
A control reaction mixture without any inhibitor was also incubated at room temperature for 15 min. At the end of the min incubation, all-trans-retinol [11-12-^3H2] (0.2 μM) was added to the reaction mixtures (100 mM Tris pH 8.0, 76.7 μg of RPE protein, 0.2% BSA 100 μM of DPPC, 1 mM of DTT and 0.2 μM all-trans-retinol [11-12-^3H2]) and incubated at room temperature for 30 min. […] The retinoids were analyzed as previously described (27). […]

[2] = target: T1, RPE65 (Bos taurus, UniProt Q28175); assay: Fluorescence binding assay of retinoids and analogs to purified RPE65; design: species or system bovine
T1 construct: Frozen bovine eyecups devoid of retinas were purchased from W. L. Lawson Co; tissue W. L. Lawson Co; host or cells: bovine eyecups (retinal pigment epithelium)
T1 sequence (Q28175 whole entry): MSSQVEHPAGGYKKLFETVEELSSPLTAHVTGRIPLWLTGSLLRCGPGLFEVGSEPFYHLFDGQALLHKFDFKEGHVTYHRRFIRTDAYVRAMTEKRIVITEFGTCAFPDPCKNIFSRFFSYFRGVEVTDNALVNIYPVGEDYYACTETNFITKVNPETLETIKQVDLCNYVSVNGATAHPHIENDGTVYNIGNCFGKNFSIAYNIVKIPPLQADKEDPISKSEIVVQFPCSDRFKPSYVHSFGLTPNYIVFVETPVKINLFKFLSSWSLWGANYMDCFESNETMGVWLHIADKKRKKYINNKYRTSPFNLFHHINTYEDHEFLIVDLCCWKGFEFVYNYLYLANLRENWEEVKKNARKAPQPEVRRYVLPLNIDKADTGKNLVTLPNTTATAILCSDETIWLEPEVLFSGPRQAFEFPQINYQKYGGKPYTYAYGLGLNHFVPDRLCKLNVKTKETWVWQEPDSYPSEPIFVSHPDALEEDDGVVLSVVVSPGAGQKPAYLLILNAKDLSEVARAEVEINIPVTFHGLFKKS
Protocol: Purification of mRPE65, sRPE65 and rHRPE65: Purification was performed as described before (Ma et al., 2001). The purities of these proteins were verified by silver staining or Coomassie staining and Western blot (1:4000 primary antibody-1 h at room temperature and 1:4000 secondary antibody-0.5 h at room temperature).
(§1) Fluorescence binding assays: RPE65 in PBS, 1% CHAPS, pH 7.4 was used in the fluorometric titration studies. Protein concentrations were measured by a modified Lowry method (Lowry et al., 1951). All titrations were performed at 25° C. The samples in PBS buffer were excited at 280 nm and the fluorescence was scanned from 300 to 500 nm. Fluorescence measurements, using 450 μL quartz cuvettes with a 0.5 cm path length, were made at 25° C. on a Jobin Yvon Instruments, Fluoromax 2 employing the right-angle detection method.
(§2) The fluorescence of the protein solution was measured after equilibrating it at 25° C. for 10 min. The sample was then titrated with a solution of retinoid dissolved in dimethyl sulfoxide. In each titration, to a 250 μL solution of the protein an equal amount of retinoid, typically 0.2 μL. was added and thoroughly mixed before allowing it to equilibrate for 10 min prior to recording the fluorescence intensity. […] The binding constant (KD) was calculated from the fluorescence intensity by using the following equation (Gollapalli et al., 2003).
where P0=Total protein concentration,
n=number of independent binding sites, R0=Total retixioid concentration at each addition, KD=dissociation constant, Fmax=Fluorescence intensity at saturation, and F0=Initial fluorescence intensity.

[3] = target: T2, sRPE65 (Bos taurus, UniProt Q28175); assay: Fluorescence binding of retinoids to purified sRPE65; design: species or system bovine; settings: 0.37 μM sRPE65, phosphate buffered saline pH 7.4, 1% CHAPS
T2 construct: Frozen bovine eyecups devoid of retinas were purchased from W. L. Lawson Co; tissue W. L. Lawson Co; host or cells: bovine eyecups (retinal pigment epithelium)
T2 sequence (Q28175 whole entry): as above
Protocol: as §1
as §2, with “The sample was then titrated with a solution of retinoid dissolved in dimethyl sulfoxide.” left out
As mentioned above, membrane associated RPE65 (mRPE65) stereospecifically binds all-trans-retinyl palmitate. In this example, the binding of retinoids to sRPE65 is measured by the fluorescence methodology already described (Gollapalli, D. R., Maiti, P., Rando, R. R. (2003) RPE65 operates in the vertebrate visual cycle by stereospecifically binding all-trans-retinyl esters. Biochemistry 42, 11824-30). […]

[4] = target: mouse RPE65; assay: Constants of affinity (Kds) for mouse RPE65; format: binding; settings: read-out: Kd (constant of affinity) for mouse RPE65
Protocol: as §1, §2
The constants of affinity (Kds) of several compounds for mouse RPE65 were determined. […] Thus, the potency of binding is a function of the ester chain length, i.e., the longer the chain length, the stronger the affinity for RPE65 is and the stronger the antagonist is.

[5] = target: T3, tLRAT (Homo sapiens, UniProt O95237); assay: mRPE65 concentration-dependent esterification of vitamin A by tLRAT; format: biochemical
T3 construct: This form of LRAT has the two N and C-terminal transmembrane domains of LRAT truncated; made in house
T3 sequence (O95237 31-196 limits assumed): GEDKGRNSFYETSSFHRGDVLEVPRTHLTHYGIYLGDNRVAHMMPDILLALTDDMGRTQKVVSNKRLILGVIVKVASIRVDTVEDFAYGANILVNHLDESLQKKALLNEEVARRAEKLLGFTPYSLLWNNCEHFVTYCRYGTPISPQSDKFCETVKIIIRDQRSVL
Protocol: mRPE65 concentration-dependent esterification of vitamin A: The effect of mRPE65 concentration on the rates of all-trans-retinyl palmitate formation was determined by monitoring the tLRAT catalyzed formation of all-trans-retinyl palmitate from added [11,12-^3H2]-all-trans-retinol and mRPE65. It should be noted that all-trans-retinyl palmitate formed from mRPE65 and vitamin A was identified both by its mass spectroscopic and chromatographic properties. The reaction mixture (volume 0.1 mL) contains 100 mM Tris (pH 8.4), 5 μM of tLRAT 0.3% CHAPS, 1 mM dithiothreitol and 5 μM of all-trans-retinol [11,12-^3H2] and mRPE65 (0, 0.008, 0.02, 0.028, 0.04, 0.052, 0.06 and 0.08 μM) incubated for 10 min at room temperature. After 10 min the reaction was quenched with 500 μL methanol, 100 μL of water and 500 μL of hexane. The amount of all-trans-retinyl palmitate [11,12-^3H2] formed as determined by normal phase-HPLC and was used as a measure of activity. The kinetic parameters KM (Kapp) and N were calculated as described before (Segal 1993). Each experiment was done in triplicate, and the data points used are an average of these three points. […]
In these experiments, pure mRPE65 and vitamin A are incubated with LRAT and the resultant all-trans-retinyl palmitate is isolated by HPLC. […] Under the same conditions, no observable turnover of DPPC is measured (FIG. 11B).

[6] = purified RPE65, PBS, 1% CHAPS, pH 7.4, 25° C., N=4, read-out: average KD for binding to RPE65

Molecule: CC1=C(/C=C/C(C)=C/C=C/C(C)=C\C(=O)O)C(C)(C)CCC1 [13-cis-retinoic acid]
- inhibition of 11-cis-retinol formation ([1]; membranes pre-incubated with vitamin A before inhibitor, 60 μM, data not shown): not susceptible to inhibition

Molecule: CC1=C(/C=C/C(C)=C/C=C/C(C)=C/CO)C(C)(C)CCC1 [all-trans-retinol, reference compound]
- Kd [3]: ~65 nM

Molecule: CCCCCCCCCCCCCCCC(=O)OC/C=C(C)/C=C/C=C(C)/C=C/C1=C(C)CCCC1(C)C [retinyl palmitate]
- Kd [4]: 47 nM
- Kd [3]: ~1200 nM
- Kd ([2]; antagonist of RPE65, read-out: KD): 47 nM
- Kd [2, 6]: 47 nM

Continued, in another order:

- Kd [2, 6]: ~3550 nM
Molecule: CC1=C(/C=C/C(C)=C/C=C/C(C)=C/C(=O)Nc2ccc(O)cc2)C(C)(C)CCC1 [N-(4-hydroxyphenyl)retinamide, reference compound]
- inhibition of 11-cis-retinol formation ([1]; membranes pre-incubated with the inhibitor before vitamin A (FIG. 8)): substantially weaker

- N (Hill plot) ([5]; tLRAT catalyzed palmitoyl transfer to vitamin A): 2.54
B1: mRPE65: membrane-associated, palmitoylated form of RPE65; acts as palmitoyl donor for LRAT (protein, UniProt Q16518 2-533, looked up)
Retinoid isomerohydrolase: SIQVEHPAGGYKKLFETVEELSSPLTAHVTGRIPLWLTGSLLRCGPGLFEVGSEPFYHLFDGQALLHKFDFKEGHVTYHRRFIRTDAYVRAMTEKRIVITEFGTCAFPDPCKNIFSRFFSYFRGVEVTDNALVNVYPVGEDYYACTETNFITKINPETLETIKQVDLCNYVSVNGATAHPHIENDGTVYNIGNCFGKNFSIAYNIVKIPPLQADKEDPISKSEIVVQFPCSDRFKPSYVHSFGLTPNYIVFVETPVKINLFKFLSSWSLWGANYMDCFESNETMGVWLHIADKKRKKYLNNKYRTSPFNLFHHINTYEDNGFLIVDLCCWKGFEFVYNYLYLANLRENWEEVKKNARKAPQPEVRRYVLPLNIDKADTGKNLVTLPNTTATAILCSDETIWLEPEVLFSGPRQAFEFPQINYQKYCGKPYTYAYGLGLNHFVPDRLCKLNVKTKETWVWQEPDSYPSEPIFVSHPDALEEDDGVVLSVVVSPGAGQKPAYLLILNAKDLSEVARAEVEINIPVTFHGLFKKS
modifications: palmitoylated membrane-associated form
notes: membrane-associated, palmitoylated form of RPE65; acts as palmitoyl donor for LRAT
- Km ([5]; 5 μM tLRAT, 5 μM all-trans-retinol, sigmoidal kinetics, read-out: KM (Kapp) as palmitoyl donor): 0.03 µM
